Square brackets hold non-standard residues; d marks the D form. Peptide text beside a SMILES is read from it. Phe(4-NO2) = N[CH](Cc1ccc([N+](=O)[O-])cc1)C(=O)O; NMeY = CN[CH](Cc1ccc(O)cc1)C(=O)O; Sar = CNCC(=O)O
Tests used:
[1] = Evaluated for inhibitory activity against Opioid receptor kappa 1 of rabbit vas deferens (RVD)
[2] = Binding affinities against Opioid receptor kappa 1 of guinea pig brain membrane using [3H]U69,593 as the radioligand using competition binding assays.
[3] = Binding affinities against Opioid receptor delta 1 of guinea pig brain membrane using [3H]DPDPE as the radioligand using competition binding assays.

CN[C@@H](Cc1ccc(O)cc1)C(=O)NCC(=O)NNC(=O)N[C@@H](Cc1ccccc1)C(=O)N[C@@H](CC(C)C)C(=O)N[C@@H](CCCNC(=N)N)C(=O)N[C@@H](CCCNC(=N)N)C(=O)N[C@H](CC(C)C)C(N)=O
IC50 [1]: 152 nM

CC[C@H](C)[C@H](NC(=O)[C@H](CCCNC(=N)N)NC(=O)[C@H](CCCNC(=N)N)NC(=O)[C@H](CC(C)C)NC(=O)[C@H](Cc1ccccc1)NC(=O)CNC(=O)CNC(=O)[C@@H](N)Cc1ccc(O)cc1)C(N)=O [2-[2-(2-{2-[2-(2-{2-[2-Amino-3-(4-hydroxy-phenyl)-propionylamino]-acetylamino}-acetylamino)-3-phenyl-propionylamino]-4-methyl-pentanoylamino}-5-guanidino-pentanoylamino)-5-guanidino-pentanoylamino]-3-methyl-pentanoic acid amide]
Ki [2]: 1.2 nM | Ki [3]: 24 nM | IC50 [1]: 17 nM

CCNC(=O)[C@@H](CC(C)C)NC(=O)[C@H](CCCNC(=N)N)N(C)C(=O)[C@H](CCCNC(=N)N)NC(=O)[C@H](CC(C)C)NC(=O)[C@H](Cc1ccccc1)NC(=O)CNC(=O)CNC(=O)[C@H](Cc1ccc(O)cc1)NC [2-[2-(2-{2-[3-(4-Hydroxy-phenyl)-2-methylamino-propionylamino]-acetylamino}-acetylamino)-3-phenyl-propionylamino]-4-methyl-pentanoic acid (1-{[1-(1-ethylcarbamoyl-3-methyl-butylcarbamoyl)-4-guanidino-butyl]-methyl-carbamoyl}-4-guanidino-butyl)-amide]
Ki [2]: 1.9 nM | Ki [3]: 27 nM | IC50 [1]: 2.6 nM

CNC(Cc1ccc(O)cc1)C(=O)NCC(=O)NCC(=O)NC(Cc1ccc([N+](=O)[O-])cc1)C(=O)NC(CC(C)C)C(=O)NC(CCCNC(=N)N)C(=O)NC(CCCNC(=N)N)C(=O)NC(CC(C)C)C(N)=O (centres undefined) [2-[5-Guanidino-2-(5-guanidino-2-{2-[2-(2-{2-[3-(4-hydroxy-phenyl)-2-methylamino-propionylamino]-acetylamino}-acetylamino)-3-(4-nitro-phenyl)-propionylamino]-4-methyl-pentanoylamino}-pentanoylamino)-pentanoylamino]-4-methyl-pentanoic acid amide] (H-[NMeY]GG[Phe(4-NO2)]LRRL-NH2; configuration not given here)
Ki [2]: 0.77 nM | Ki [3]: 29 nM

CN[C@@H](Cc1ccc(O)cc1)C(=O)NCC(=O)NCC(=O)N[C@@H](Cc1ccccc1)C(=O)N[C@H](C)C(=O)N[C@@H](CCCNC(=N)N)C(=O)N[C@@H](CCCNC(=N)N)C(=O)N[C@H](CC(C)C)C(N)=O [2-[5-Guanidino-2-(5-guanidino-2-{2-[2-(2-{2-[3-(4-hydroxy-phenyl)-2-methylamino-propionylamino]-acetylamino}-acetylamino)-3-phenyl-propionylamino]-propionylamino}-pentanoylamino)-pentanoylamino]-4-methyl-pentanoic acid amide]
IC50 [1]: 13000 nM

CC(C)C[C@H](NC(=O)[C@H](CCCNC(=N)N)NC(=O)[C@H](CCCNC(=N)N)NC(=O)[C@H](CC(C)C)NC(=O)[C@H](Cc1ccccc1)NC(=O)CNC(=O)CN(C)C(=O)[C@@H](N)Cc1ccc(O)cc1)C(N)=O [2-{2-[2-(2-{2-[2-(2-{[2-Amino-3-(4-hydroxy-phenyl)-propionyl]-methyl-amino}-acetylamino)-acetylamino]-3-phenyl-propionylamino}-4-methyl-pentanoylamino)-5-guanidino-pentanoylamino]-5-guanidino-pentanoylamino}-4-methyl-pentanoic acid amide] (H-Y[Sar]GFLRRL-NH2)
IC50 [1]: 738 nM

CN[C@@H](Cc1ccc(O)cc1)C(=O)NCC(=O)NCC(=O)N[C@@H](Cc1ccccc1)C(=O)N(C)[C@@H](CC(C)C)C(=O)N[C@@H](CCCNC(=N)N)C(=O)N[C@@H](CCCNC(=N)N)C(=O)N[C@H](CC(C)C)C(N)=O [2-{5-Guanidino-2-[5-guanidino-2-(2-{[2-(2-{2-[3-(4-hydroxy-phenyl)-2-methylamino-propionylamino]-acetylamino}-acetylamino)-3-phenyl-propionyl]-methyl-amino}-4-methyl-pentanoylamino)-pentanoylamino]-pentanoylamino}-4-methyl-pentanoic acid amide]
IC50 [1]: 189 nM

CN[C@@H](Cc1ccc(O)cc1)C(=O)NCC(=O)NCC(=O)N[C@@H](Cc1ccccc1)C(=O)N[C@@H](CC(C)C)C(=O)N(C)[C@@H](CCCN=C(N)N)C(=O)N[C@@H](CCCN=C(N)N)C(=O)N[C@H](CC(C)C)C(N)=O [2-{5-Guanidino-2-[5-guanidino-2-({2-[2-(2-{2-[3-(4-hydroxy-phenyl)-2-methylamino-propionylamino]-acetylamino}-acetylamino)-3-phenyl-propionylamino]-4-methyl-pentanoyl}-methyl-amino)-pentanoylamino]-pentanoylamino}-4-methyl-pentanoic acid amide]
IC50 [1]: 1.1 nM

CCNC(=O)[C@@H](CC(C)C)NC(=O)[C@H](CCCN=C(N)N)N(C)C(=O)[C@H](CCCN=C(N)N)NC(=O)[C@H](CC(C)C)NC(=O)[C@H](Cc1ccc([N+](=O)[O-])cc1)NC(=O)CNC(=O)CNC(=O)[C@H](Cc1ccc(O)cc1)NC [2-{5-Guanidino-2-[(5-guanidino-2-{2-[2-(2-{2-[3-(4-hydroxy-phenyl)-2-methylamino-propionylamino]-acetylamino}-acetylamino)-3-(4-nitro-phenyl)-propionylamino]-4-methyl-pentanoylamino}-pentanoyl)-methyl-amino]-pentanoylamino}-4-methyl-pentanoic acidN-ethyl amide]
Ki [2]: 3.9 nM | Ki [3]: 18 nM

CN[C@@H](Cc1ccc(O)cc1)C(=O)NCC(=O)NCC(=O)N[C@@H](Cc1ccccc1)C(=O)N[C@@H](CC(C)C)C(=O)N[C@@H](CCCNC(=N)N)C(=O)N(C)[C@@H](CCCNC(=N)N)C(=O)N[C@H](CC(C)C)C(N)=O [2-{5-Guanidino-2-[(5-guanidino-2-{2-[2-(2-{2-[3-(4-hydroxy-phenyl)-2-methylamino-propionylamino]-acetylamino}-acetylamino)-3-phenyl-propionylamino]-4-methyl-pentanoylamino}-pentanoyl)-methyl-amino]-pentanoylamino}-4-methyl-pentanoic acid amide]
Ki [2]: 1.4 nM | Ki [3]: 54 nM

CCNC(=O)[C@@H](CC(C)C)NC(=O)[C@H](CCCN=C(N)N)N(C)C(=O)[C@H](CCCN=C(N)N)NC(=O)[C@@H]1CSSC[C@@H](NC(=O)[C@@H](N)Cc2ccc(O)cc2)C(=O)NCC(=O)N[C@@H](Cc2ccccc2)C(=O)N1 [13-[2-Amino-3-(4-hydroxy-phenyl)-propionylamino]-7-benzyl-6,9,12-trioxo-1,2-dithia-5,8,11-triaza-cyclotetradecane-4-carboxylic acid (1-{[1-(1-ethylcarbamoyl-3-methyl-butylcarbamoyl)-4-guanidino-butyl]-methyl-carbamoyl}-4-guanidino-butyl)-amide]
Ki [2]: 3 nM | Ki [3]: 1.6 nM

Source: BindingDB's records for doi:10.1021/jm00163a034 (Eisai, 1990)
